The supplement of paper PMC8253809

Key:
DIPGX29 [1] = H3.3 K27M diffuse intrinsic pontine glioma line; test: EC50 (inflection of fitted growth-inhibition curve) (log10 M)
Procedure, shortened: (§1)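 Patient-derived pHGG/DIPG cell lines and astrocyte controls were plated in 384-well plates coated with 1% Geltrex and dosed by pin tool with a 10-point threefold dilution series (mean top concentration 35 μM), in triplicate. Cells were exposed for 7 days (3 days for iAstro) at 37 °C and 5% CO2. CellTiter-Glo luminescence was log2-transformed, normalised per plate to % activity between negative (solvent) and positive control wells, and pooled. EC50 and maximal response (yFin) were taken from whichever three- or four-parameter log-logistic fit had the lowest AICc.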

DIPGX37 [2] = H3.3 K27M diffuse intrinsic pontine glioma line; test: as above
Procedure, shortened: as §1

HGGX39 [3] = paediatric high-grade glioma line; test: as above
Procedure, shortened: as §1

HGGX6 [4] = H3.3 G34R paediatric high-grade glioma line; test: as above
Procedure, shortened: as §1

DIPGX29 [5] = test: maximal growth inhibition (yFin) relative to DMSO / staurosporine; higher = more efficacious
Procedure, shortened: as §1

DIPGX37 [6] = test: as above
Procedure, shortened: as §1

HGGX39 [7] = test: as above
Procedure, shortened: as §1

HGGX6 [8] = test: as above
Procedure, shortened: as §1

DIPGX29 [9] = test: area under dose-response curve of % growth inhibition (log2 RLU vs DMSO / staurosporine), 1e-11 to 1e-4 M (% x log10 M); higher = more growth inhibition
Procedure, shortened: (§2)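 Patient-derived pHGG/DIPG cell lines and astrocyte controls were grown on 1% Geltrex-coated 384-well plates and exposed to a 10-point threefold dilution series (mean top concentration 35 μM), in triplicate. Exposure was 7 days (iAstro 3 days) at 37 °C, 5% CO2. CellTiter-Glo luminescence was log2-transformed and normalised per plate to % activity between solvent and positive controls. Area under the curve was taken by trapezoid rule from the fitted log-logistic curve, or from a smoothing spline when the sigmoid fit failed.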

DIPGX37 [10] = test: as above
Procedure, shortened: as §2

HGGX39 [11] = test: as above
Procedure, shortened: as §2

HGGX6 [12] = test: as above
Procedure, shortened: as §2

SMILES | EC50 (log10 M) (DIPGX29 [1]) | EC50 (log10 M) (DIPGX37 [2]) | EC50 (log10 M) (HGGX39 [3]) | EC50 (log10 M) (HGGX6 [4]) | maximal growth inhibition (DIPGX29 [5]) [%] | maximal growth inhibition (DIPGX37 [6]) [%] | maximal growth inhibition (HGGX39 [7]) [%] | maximal growth inhibition (HGGX6 [8]) [%] | area under dose-response curve (DIPGX29 [9]) | area under dose-response curve (DIPGX37 [10]) | area under dose-response curve (HGGX39 [11]) | area under dose-response curve (HGGX6 [12])
Cc1c(-c2ccc(O)cc2)n(Cc2ccc(OCCN3CCCCCC3)cc2)c2ccc(O)cc12 [BAZEDOXIFENE] | -4.97 | -4.91 | -5 | -4.93 | 79.1 | 83.5 | 87.3 | 75.9 | 76.7 | 75.4 | 87.8 | 70.5
COc1cccc2c1C(=O)c1c(O)c3c(c(O)c1C2=O)C[C@@](O)(C(C)=O)C[C@@H]3O[C@H]1C[C@H](N)[C@H](O)[C@H](C)O1 [DAUNORUBICIN] | -5.69 | -5.94 | -6.13 | -5.62 | 83.3 | 82.2 | 76.1 | 76.4 | 141 | 160 | 159 | 124
Clc1ccc(C(Cn2ccnc2)OCc2csc3c(Cl)cccc23)c(Cl)c1 (stereo not given) [SERTACONAZOLE] | -4.81 | -4.87 | -4.95 | -4.82 | 64.2 | 84.7 | 61.9 | 62.2 | 51.2 | 73.6 | 72.3 | 50.7
COc1cc2/c(=N/c3ccc(Br)cc3F)nc[nH]c2cc1OCC1CCN(C)CC1 [VANDETANIB] | -4.74 | -4.7 | -4.75 | -4.7 | 80.7 | 80.9 | 80.4 | 77.1 | 68.7 | 65.1 | 60.3 | 54.2
CC(C)OC(=O)C(C(=O)OC(C)C)=C1SC=CS1 [MALOTILATE] | -4.88 | -4.89 | -4.94 | -4.94 | 35.2 | 57.4 | 83.7 | 34.8 | 30.3 | 50.9 | 88.2 | 32.7
COc1cc2nc(N3CCN(C(=O)c4ccco4)CC3)nc(N)c2cc1OC [PRAZOSIN] | -4.88 | -4.92 | -4.9 | -5.03 | 75.3 | 75.4 | 74.7 | 75 | 66.6 | 75.3 | 66.9 | 76.9
C=CC(=O)N1CCC[C@@H](n2nc(-c3ccc(Oc4ccccc4)cc3)c3c(N)ncnc32)C1 [IBRUTINIB] | -5 | -4.96 | -4.94 | -5.01 | 29.8 | 41.2 | 53.1 | 35.5 | 49.8 | 53.7 | 50.1 | 35.8
COc1cc2c(NC3CCN(C(C)C)CC3)nc(N3CCC(F)(F)CC3)nc2cc1OCCCN1CCCC1 [UNC0642] | -4.96 | -5.19 | -4.84 | -5.05 | 74.9 | 70.6 | 74.9 | 72.8 | 71.3 | 96 | 62.5 | 75.5
COc1cc2ncnc(Nc3ccc(F)c(Cl)c3)c2cc1OCCCN1CCOCC1 [GEFITINIB] | -4.7 | -4.66 | -4.65 | -4.67 | 58.3 | 69.8 | 73.7 | 65.7 | 54.3 | 46.1 | 47.9 | 47.8
CN(C)c1ccc2nc3ccc(=[N+](C)C)cc-3sc2c1 [METHYLENE BLUE] | -5.31 | -5.04 | -5.48 | -5.03 | 56.7 | 54.8 | 50.7 | 69.6 | 76.5 | 67.9 | 76.9 | 89.6
C[C@@H](O[C@H]1OCCN(Cc2n[nH]c(=O)[nH]2)[C@H]1c1ccc(F)cc1)c1cc(C(F)(F)F)cc(C(F)(F)F)c1 [APREPITANT] | -4.8 | -4.81 | -4.81 | -4.81 | 85.5 | 81.7 | 80 | 72.7 | 76.6 | 66.2 | 64.5 | 58.5
COc1ccccc1-c1cc(Nc2cccc(CS(N)(=O)=O)c2)ncn1 | -4.82 | -4.68 | -4.84 | -4.83 | 71.9 | 59.7 | 48.3 | 65.7 | 58.4 | 39.8 | 40.5 | 54.4
C[C@@H](NCCCc1cccc(C(F)(F)F)c1)c1cccc2ccccc12 [CINACALCET] | -5.03 | -5.04 | -5.05 | -5.03 | 82.1 | 90.5 | 94.2 | 84.4 | 99.9 | 112 | 111 | 98.5
CC[C@@H](C(=O)[C@@H](C)[C@@H](O)[C@H](C)[C@@H]1O[C@@H]([C@@H](CC)C(=O)O)CC[C@@H]1C)[C@H]1O[C@]2(C=C[C@@H](O)[C@]3(CC[C@@](C)([C@H]4CC[C@](O)(CC)[C@H](C)O4)O3)O2)[C@H](C)C[C@@H]1C [SALINOMYCIN] | -5.32 | -6.53 | -6.01 | -5.03 | 69.7 | 62.6 | 73.9 | 60.5 | 106 | 153 | 153 | 85.6
CC(=O)N1CCN(c2ccc(OCC3COC(Cn4ccnc4)(c4ccc(Cl)cc4Cl)O3)cc2)CC1 (stereo not given) [KETOCONAZOLE] | -4.92 | -4.96 | -5.12 | -4.94 | 40.2 | 37.6 | 68.2 | 56.7 | 40.9 | 36.1 | 73.6 | 53.4
